Data set [1] is described as follows: Estimated free fraction in blood, calculated from Kd* with [HSA]total 700 μM. In kind it is in vitro ADME. The following applies: human; [HSA]total set at 700 μM; read-out: Free Fraction est. in blood. The procedure:
The free fraction in blood is estimated per the following equation, as derived by Trainor, Expert Opin. Drug Disc., 2007, 2(1):51-64, where [HSA]total is set at 700 μM. [formula]

For data set [2], the system named is Jurkat cell line. Format: cell-based. The following applies: 24 h. The procedure:
Jurkat cell line (Clone E6-1, ATCC catalog #TIB-152) is grown in specific serum-supplemented media (RPMI-1640, Invitrogen catalog #22400) as recommended by ATCC. A day prior to the initiation of the study, cells are split at optimal cell density (2×10^5-5×10^5 cells/ml) to assure actively dividing cells. The next day, cells are washed twice in serum-free Opti-MEM media (Invitrogen, Catalog #51985) and cells are then plated at optimal cell density (10,000 cells/well) in 50 μl Opti-MEM media or Opti-MEM supplemented with 2% or 10% human serum (Bioreclamation, catalog #HMSRM) in 96-well white tissue culture plate (Nunc, catalog #136102).
For serum free experiment, crosslinked polypeptides are diluted from 2 mM stocks (100% DMSO) in sterile water to prepare 400 μM working solutions. The crosslinked polypeptides and controls are diluted 10-fold first and then serially two-fold diluted in Opti-MEM in dosing plates to provide concentrations of between 1.2 and 40 μM. 50 μl of each dilution is then added to the appropriate wells of the test plate to achieve final concentrations of the polypeptides equal to between 0.6 to 20 μM. For studies using Opti-MEM supplemented with human serum (Bioreclamation, catalog #HMSRM), crosslinked polypeptides are diluted from 10 mM stocks (100% DMSO) in sterile water to prepare 2 mM working solutions. The crosslinked polypeptides and controls are diluted 10-fold first and then serially two-fold diluted in Opti-MEM in the presence of 2% or 10% of human serum to provide concentrations of the polypeptides equal to between 6.25 to 200 μM in dosing plates. 50 μl of each dilution is then added to the appropriate wells of the test plate to achieve final concentrations of the polypeptides equal to between 3.125 to 100 μM. Controls included wells without polypeptides containing the same concentration of DMSO as the wells containing the macrocycles, wells containing 0.1% Triton X-100 and wells containing no cells. Plates are incubated for 24 hours at 37° C. in humidified 5% CO2 atmosphere.
At the end of the incubation period, CellTiter-Glo assay is performed according to manufacturer's instructions (Promega, catalog #G7573) and luminescence is measured using Synergy HT Plate reader (BioTek). Luminescence correlates with viability. A reduction in viability reflects the ability of the test compounds to induce programmed cell death via BAX and BAK.

Data set [3] addresses human serum proteins. The data set can be described thus: Apparent affinity to human serum proteins (Kd*) by EC50 shift analysis. Format: in vitro ADME. To be noted: nonlinear regression of EC50 shift with serum, n = 1, P = 700 μM for 100% serum. The source says: The measurement of apparent Kd values for serum protein by EC50 shift analysis provides a simple and rapid means of quantifying the propensity of experimental compounds to bind HSA and other serum proteins. A linear relationship exists between the apparent EC50 in the presence of serum protein (EC′50) and the amount of serum protein added to an in vitro assay. This relationship is defined by the binding affinity of the compound for serum proteins, expressed as Kd*. This term is an experimentally determined, apparent dissociation constant that may result from the cumulative effects of multiple, experimentally indistinguishable, binding events. The form of this relationship is presented here in Eq. 0.3, and its derivation can be found in Copeland et al, Biorg. Med. Chem. Lett. 2004, 14:2309-2312. [formula] A significant proportion of serum protein binding can be ascribed to drug interactions with HSA, due to the very high concentration of this protein in serum (35-50 g/L or 530-758 μM). To calculate the Kd value for these compounds we have assumed that the shift in EC50 upon protein addition can be ascribed fully to the HSA present in the added serum, where P is 700 μM for 100% serum, P is 70 μM for 10% serum, etc. We further made the simplifying assumption that all of the compounds bind HSA with a 1:1 stoichiometry, so that the term n in Eq. (0.3) is fixed at unity. With these parameters in place we calculated the Kd* value for each stapled peptide from the changes in EC50 values with increasing serum (and serum protein) concentrations by nonlinear regression analysis of Eq. 0.3 using Mathematica 4.1 (Wolfram Research, Inc., www.wolfram.com). EC′50 values in whole blood are estimated by setting P in Eq. 0.3 to 700 μM [HSA].

Fraction unbound, EC50 and Kd data for eight compounds are collected here from patent US9175045B2, “Peptidomimetic macrocycles” (Aileron Therapeutics, Inc., priority 2008, dated 2015).

Numbered stars: 1 amine (or outer) side, 2 acyl side, 3 side chain; on linkers, the order of the positions; unused ones are H or OH. Bridge positions count the residues as written; N and C are the ends. Square brackets hold non-standard residues; d marks the D form. Peptide text beside a SMILES is read from it. * marks the point of attachment. ξ: configuration not given here. ξαMeNle(6-ylidene) = CC(CCCC=[*:3])(N[*:1])C(=O)[*:2]; Nle = CCCC[C@H](N)C(=O)O; Aib = CC(C)(N)C(=O)O; Propionyl = CCC(=O)* A value given as a limit tells only on which side of the number the result lay.

Regarding `CCCC[C@H](NC(=O)C1(C)CCCC=CCCCC(C)(NC(=O)[C@H](C)NC(=O)[C@H](CC(C)C)NC(=O)[C@H](Cc2c[nH]cn2)NC(=O)[C@H](CCCNC(=N)N)NC(=O)[C@H](C)NC(=O)[C@@H](NC(=O)[C@H](CC(N)=O)NC(=O)[C@H](CCCNC(=N)N)NC(=O)[C@H](C)NC(=O)[C@H](C)NC(=O)[C@H](CC(=O)O)NC(C)=O)[C@@H](C)CC)C(=O)N[C@@H](C(C)C)C(=O)NC(C)(C)C(=O)N[C@@H](CC(=O)O)C(=O)N1)C(=O)N[C@@H](C)C(=O)N[C@@H](CCCNC(=N)N)C(=O)N[C@@H](CO)C(=O)N[C@H](C(N)=O)[C@@H](C)CC` (stereo partly drawn) [Compound 2, Ac-DAARNIARHLA$VAibD$NleARSI-NH2] (Ac-DAARNIARHLA[ξαMeNle(6-ylidene)]V[Aib]D[ξαMeNle(6-ylidene)][Nle]ARSI-NH2; staple 12-16), the fraction unbound in data set [1] was below 0.001. In addition, in data set [2], the EC50 (commonly the concentration giving half of the maximal effect) is 1600 nM. For the same compound, in data set [3], the Kd was below 100 nM.

For `CCC(=O)N[C@@H](CCCNC(=N)N)C(=O)N[C@@H](CC(N)=O)C(=O)N[C@H](C(=O)NC(C)(C)C(=O)N[C@@H](CCCNC(=N)N)C(=O)N[C@@H](Cc1c[nH]cn1)C(=O)N[C@@H](CC(C)C)C(=O)NC(C)(C)C(=O)NC1(C)CCCC=CCCCC(C)(C(=O)N[C@@H](C)C(=O)N[C@@H](C)C(=O)N[C@@H](CCCNC(=N)N)C(=O)N[C@@H](CO)C(=O)N[C@H](C(N)=O)[C@@H](C)CC)NC(=O)[C@H](CC(=O)O)NC(=O)C(C)(C)NC(=O)[C@H](C(C)C)NC1=O)[C@@H](C)CC` (stereo partly drawn) [Compound 9, Pr-RNIAibRHLAib$VAibD$AARSI-NH2] (Propionyl-RNI[Aib]RHL[Aib][ξαMeNle(6-ylidene)]V[Aib]D[ξαMeNle(6-ylidene)]AARSI-NH2; staple 9-13), the fraction unbound in data set [1] is 0.0048. In addition, the EC50 in data set [2] is 1100 nM. In data set [3], the Kd was determined as 2900 nM.

Consider `CC[C@H](C)[C@H](NC(C)=O)C(=O)N[C@@H](Cc1c[nH]c2ccccc12)C(=O)N[C@H](C(=O)N[C@@H](C)C(=O)N[C@@H](CCC(N)=O)C(=O)N[C@@H](CCC(N)=O)C(=O)N[C@@H](CC(C)C)C(=O)N[C@@H](CCCNC(=N)N)C(=O)NC1(C)CCCC=CCCCC(C)(C(=O)N[C@@H](Cc2ccccc2)C(=O)N[C@@H](CC(N)=O)C(=O)N[C@@H](C)C(=O)N[C@@H](Cc2ccc(O)cc2)C(=O)N[C@@H](Cc2ccc(O)cc2)C(=O)N[C@@H](C)C(=O)N[C@@H](CCCNC(=N)N)C(=O)N[C@@H](CCCNC(=N)N)C(N)=O)NC(=O)[C@H](CC(=O)O)NC(=O)CNC(=O)[C@H]([C@@H](C)CC)NC1=O)[C@@H](C)CC` (stereo partly drawn) [Compound 11, Ac-IWIAQQLR$IGD$FNAYYARR-NH2], for which the fraction unbound in data set [1] was 0.0018. For the same compound, the EC50 in data set [2] turned out to be 1200 nM. The Kd in data set [3] was 1100 nM.

Consider `CCCC[C@H](NC(=O)C1(C)CCCC=CCCCC(C)(NC(=O)[C@H](C)NC(=O)[C@H](CC(C)C)NC(=O)[C@H](Cc2c[nH]cn2)NC(=O)[C@H](CCCNC(=N)N)NC(=O)[C@H](C)NC(=O)[C@@H](NC(=O)[C@H](CC(N)=O)NC(=O)[C@H](CCCNC(=N)N)NC(=O)[C@@H](NC(=O)[C@H](C)NC(=O)[C@H](CC(=O)O)NC(C)=O)[C@@H](C)CC)[C@@H](C)CC)C(=O)N[C@@H](C(C)C)C(=O)NC(C)(C)C(=O)N[C@@H](CC(=O)O)C(=O)N1)C(=O)N[C@@H](C)C(=O)N[C@@H](CCCNC(=N)N)C(=O)N[C@@H](CO)C(=O)N[C@H](C(N)=O)[C@@H](C)CC` (stereo partly drawn) [Compound 4, Ac-DAIRNIARHLA$VAibD$NleARSI-NH2] (Ac-DAIRNIARHLA[ξαMeNle(6-ylidene)]V[Aib]D[ξαMeNle(6-ylidene)][Nle]ARSI-NH2; staple 12-16), for which the fraction unbound in data set [1] is below 0.001. In addition, in data set [2], the EC50 was found to be 1000 nM. Moreover, in data set [3], the Kd is below 100 nM.

As to `CC[C@H](C)[C@H](NC(=O)[C@H](Cc1c[nH]c2ccccc12)NC(=O)[C@H](CCCNC(=N)N)NC(C)=O)C(=O)N[C@@H](C)C(=O)N[C@@H](CCC(N)=O)C(=O)N[C@@H](CCC(N)=O)C(=O)N[C@@H](CC(C)C)C(=O)N[C@@H](CCCNC(=N)N)C(=O)NC1(C)CCCC=CCCCC(C)(C(=O)N[C@@H](Cc2ccccc2)C(=O)N[C@@H](CC(N)=O)C(=O)N[C@@H](C)C(=O)N[C@@H](Cc2ccc(O)cc2)C(=O)N[C@@H](Cc2ccc(O)cc2)C(=O)N[C@@H](C)C(=O)N[C@@H](CCCNC(=N)N)C(=O)N[C@@H](CCCNC(=N)N)C(N)=O)NC(=O)[C@H](CC(=O)O)NC(=O)CNC(=O)[C@H]([C@@H](C)CC)NC1=O` (stereo partly drawn) [Compound 13, Ac-RWIAQQLR$IGD$FNAYYARR-NH2], the fraction unbound in data set [1] is 0.0063. Moreover, in data set [2], the EC50 came to 1500 nM. In data set [3], the Kd came to 3800 nM.

For the compound `CC[C@H](C)[C@H](NC(C)=O)C(=O)N[C@@H](Cc1c[nH]c2ccccc12)C(=O)N[C@H](C(=O)N[C@@H](C)C(=O)N[C@@H](CCC(N)=O)C(=O)N[C@@H](C)C(=O)N[C@@H](CC(C)C)C(=O)N[C@@H](CCCNC(=N)N)C(=O)NC1(C)CCCC=CCCCC(C)(C(=O)N[C@@H](Cc2ccccc2)C(=O)N[C@@H](CC(N)=O)C(=O)N[C@@H](C)C(=O)N[C@@H](Cc2ccc(O)cc2)C(=O)N[C@@H](Cc2ccc(O)cc2)C(=O)N[C@@H](C)C(=O)N[C@@H](CCCNC(=N)N)C(=O)N[C@@H](CCCNC(=N)N)C(N)=O)NC(=O)[C@H](CC(=O)O)NC(=O)CNC(=O)[C@H]([C@@H](C)CC)NC1=O)[C@@H](C)CC` (stereo partly drawn) [Compound 12, Ac-IWIAQALR$IGD$FNAYYARR-NH2], the fraction unbound in data set [1] was 0.0038. The EC50 in data set [2] is 1300 nM. For the same compound, in data set [3], the Kd came out at 2300 nM.

With `CC[C@H](C)[C@H](NC(=O)[C@H](CCCNC(=N)N)NC(=O)[C@H](CCCNC(=N)N)NC(=O)[C@H](CCCNC(=N)N)NC(=O)[C@H](CC(C)C)NC(=O)[C@H](C)NC(C)=O)C(=O)NC1(C)CCCC=CCCCC(C)(C(=O)N[C@@H](Cc2c[nH]cn2)C(=O)N[C@@H](Cc2c[nH]cn2)C(=O)N[C@@H](CO)C(=O)N[C@H](C(N)=O)[C@@H](C)O)NC(=O)[C@H](C)NC(=O)[C@H](CS)NC(=O)[C@H](CC(C)C)NC1=O` (stereo partly drawn) [Compound 19, Ac- ALRRRI$LCA$HHST-NH2] (Ac-ALRRRI[ξαMeNle(6-ylidene)]LCA[ξαMeNle(6-ylidene)]HHST-NH2; staple 7-11), the fraction unbound in data set [1] is 0.001. The concentration giving a half-maximal response (EC50) in data set [2] amounted to 2400 nM. For the same compound, the Kd in data set [3] came out at 600 nM.

With `CCCC[C@H](NC(=O)C1(C)CCCC=CCCCC(C)(NC(=O)[C@H](C)NC(=O)[C@H](CC(C)C)NC(=O)[C@H](Cc2c[nH]cn2)NC(=O)[C@H](CCCNC(=N)N)NC(=O)[C@H](C)NC(=O)[C@@H](NC(=O)[C@H](CC(N)=O)NC(=O)[C@H](CCCNC(=N)N)NC(=O)[C@H](C)NC(=O)[C@@H](NC(=O)[C@H](CC(=O)O)NC(C)=O)[C@@H](C)CC)[C@@H](C)CC)C(=O)N[C@@H](C(C)C)C(=O)NC(C)(C)C(=O)N[C@@H](CC(=O)O)C(=O)N1)C(=O)N[C@@H](C)C(=O)N[C@@H](CCCNC(=N)N)C(=O)N[C@@H](CO)C(=O)N[C@H](C(N)=O)[C@@H](C)CC` (stereo partly drawn) [Compound 3, Ac-DIARNIARHLA$VAibD$NleARSI-NH2] (Ac-DIARNIARHLA[ξαMeNle(6-ylidene)]V[Aib]D[ξαMeNle(6-ylidene)][Nle]ARSI-NH2; staple 12-16), the fraction unbound in data set [1] is below 0.001. In addition, in data set [2], the EC50 turned out to be 1200 nM. In data set [3], the Kd was below 100 nM.
